ChEMBL document CHEMBL5154935, “Design, Synthesis, and Biological Evaluation of Novel Evodiamine Derivatives as Potential Antihepatocellular Carcinoma Agents” (J Med Chem, 2022)

Columns and labels:
[1] = tested on: HepG2; experiment: Antiproliferative activity against human HepG2 cells treated for 72 hrs by MTT assay; type: functional, cell-based; conditions: HepG2, 72 h
[2] = tested on: SK-HEP1; experiment: Antiproliferative activity against human SK-HEP1 cells treated for 72 hrs by MTT assay; type: functional, cell-based; conditions: SK-HEP1, 72 h
[3] = tested on: SMMC-7721; experiment: Antiproliferative activity against human SMMC-7721 cells treated for 72 hrs by MTT assay; type: functional, cell-based; conditions: SMMC-7721, 72 h
[4] = tested on: Huh-7; experiment: Antiproliferative activity against human Huh-7 cells treated for 72 hrs by MTT assay; type: functional, cell-based; conditions: Huh-7, 72 h
[5] = Antiproliferative activity against human L02 cells treated for 72 hrs by MTT assay; type: toxicity, cell-based
[6] = tested on: HCCLM9; experiment: Antiproliferative activity against human HCCLM9 cells treated for 72 hrs by MTT assay; type: functional, cell-based; conditions: HCCLM9, 72 h
[7] = target: T1, DNA topoisomerase 1 (Homo sapiens) (UniProt P11387); experiment: Inhibition of Top1 (unknown origin) assessed as inhibition of relaxation of supercoiled pBR322 plasmid DNA at 12.5 uM incubated for 25 mins by ethidium bromide staining based agarose gel electrophoresis analysis relative to control
T1 sequence (whole entry): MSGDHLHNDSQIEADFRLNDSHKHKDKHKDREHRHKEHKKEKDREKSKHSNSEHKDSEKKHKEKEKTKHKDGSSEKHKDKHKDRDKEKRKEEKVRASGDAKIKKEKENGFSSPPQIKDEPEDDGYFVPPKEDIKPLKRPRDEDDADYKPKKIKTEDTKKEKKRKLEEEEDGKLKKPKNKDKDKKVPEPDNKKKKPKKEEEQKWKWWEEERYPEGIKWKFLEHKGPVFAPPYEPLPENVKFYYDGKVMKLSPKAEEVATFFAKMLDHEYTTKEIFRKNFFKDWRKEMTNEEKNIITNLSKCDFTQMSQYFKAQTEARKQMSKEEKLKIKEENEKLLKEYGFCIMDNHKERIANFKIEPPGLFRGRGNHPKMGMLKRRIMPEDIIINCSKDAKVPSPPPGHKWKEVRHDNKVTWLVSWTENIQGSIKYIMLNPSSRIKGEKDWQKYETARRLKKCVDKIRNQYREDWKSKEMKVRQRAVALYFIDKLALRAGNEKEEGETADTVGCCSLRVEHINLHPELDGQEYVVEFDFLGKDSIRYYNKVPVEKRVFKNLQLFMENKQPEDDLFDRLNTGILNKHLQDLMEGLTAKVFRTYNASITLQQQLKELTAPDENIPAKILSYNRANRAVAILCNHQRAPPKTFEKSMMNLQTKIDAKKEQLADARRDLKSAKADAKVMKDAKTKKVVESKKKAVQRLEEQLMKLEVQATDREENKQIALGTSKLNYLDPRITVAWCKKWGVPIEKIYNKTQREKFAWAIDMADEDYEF

[8] = target: T1, DNA topoisomerase 1 (Homo sapiens); experiment: Inhibition of Top1 (unknown origin) assessed as inhibition of relaxation of supercoiled pBR322 plasmid DNA at 50 uM incubated for 25 mins by ethidium bromide staining based agarose gel electrophoresis analysis relative to control
[9] = target: DNA topoisomerase 2-alpha (Homo sapiens) (UniProt P11388); experiment: Inhibition of human Top2-alpha expressed in baculovirus assessed as inhibition of relaxation of supercoiled pBR322 plasmid DNA at 100 uM incubated for 30 mins in presence of ATP by ethidium bromide staining based agarose gel electrophoresis analysis relative to control
Chain of DNA topoisomerase 2-alpha (Homo sapiens) (P11388 whole entry): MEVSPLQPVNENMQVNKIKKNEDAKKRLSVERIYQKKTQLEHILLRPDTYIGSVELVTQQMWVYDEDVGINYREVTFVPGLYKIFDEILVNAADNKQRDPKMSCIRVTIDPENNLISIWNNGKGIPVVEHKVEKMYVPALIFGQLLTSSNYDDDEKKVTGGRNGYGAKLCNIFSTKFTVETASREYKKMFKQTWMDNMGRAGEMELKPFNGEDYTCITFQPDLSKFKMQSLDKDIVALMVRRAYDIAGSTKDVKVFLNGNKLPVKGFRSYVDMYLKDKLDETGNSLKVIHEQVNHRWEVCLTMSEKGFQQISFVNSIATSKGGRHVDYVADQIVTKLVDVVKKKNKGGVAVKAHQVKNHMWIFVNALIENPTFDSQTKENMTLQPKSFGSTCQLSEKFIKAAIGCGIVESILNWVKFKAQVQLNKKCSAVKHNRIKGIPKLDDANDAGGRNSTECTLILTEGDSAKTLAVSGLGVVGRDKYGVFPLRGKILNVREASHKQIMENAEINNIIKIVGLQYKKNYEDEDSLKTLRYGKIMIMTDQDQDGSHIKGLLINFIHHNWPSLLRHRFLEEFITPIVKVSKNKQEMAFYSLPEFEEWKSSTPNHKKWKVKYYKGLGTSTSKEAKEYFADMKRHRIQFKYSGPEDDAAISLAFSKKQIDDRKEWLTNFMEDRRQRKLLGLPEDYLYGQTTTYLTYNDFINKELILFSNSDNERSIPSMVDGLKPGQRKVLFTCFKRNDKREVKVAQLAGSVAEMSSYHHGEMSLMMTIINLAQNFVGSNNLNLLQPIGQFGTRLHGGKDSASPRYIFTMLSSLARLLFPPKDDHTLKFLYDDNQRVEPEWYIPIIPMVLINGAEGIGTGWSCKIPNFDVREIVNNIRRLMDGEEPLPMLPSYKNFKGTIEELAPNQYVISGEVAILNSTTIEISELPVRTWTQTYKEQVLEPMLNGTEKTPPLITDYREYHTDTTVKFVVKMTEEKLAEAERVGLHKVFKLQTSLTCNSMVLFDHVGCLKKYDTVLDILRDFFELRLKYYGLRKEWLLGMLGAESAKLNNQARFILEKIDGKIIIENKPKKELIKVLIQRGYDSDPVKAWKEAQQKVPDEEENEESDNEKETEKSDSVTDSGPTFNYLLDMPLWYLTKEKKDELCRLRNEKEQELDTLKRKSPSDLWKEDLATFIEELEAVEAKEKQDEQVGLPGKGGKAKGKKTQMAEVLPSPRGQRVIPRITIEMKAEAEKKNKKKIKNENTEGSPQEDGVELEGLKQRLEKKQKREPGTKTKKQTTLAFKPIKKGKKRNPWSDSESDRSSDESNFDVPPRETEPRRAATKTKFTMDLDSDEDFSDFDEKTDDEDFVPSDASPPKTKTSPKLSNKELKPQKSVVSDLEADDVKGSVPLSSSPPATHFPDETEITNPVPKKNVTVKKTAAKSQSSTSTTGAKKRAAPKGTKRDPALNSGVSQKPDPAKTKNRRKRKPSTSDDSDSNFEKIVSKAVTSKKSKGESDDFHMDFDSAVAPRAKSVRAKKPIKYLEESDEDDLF

SMILES: COc1ccc2[nH]c3c(c2c1)CCN1C(=O)c2cc(F)ccc2N(c2ccc(Cl)c(F)c2)C31 (stereo unspecified)
- IC50 [1]: 6.44 µM
- IC50 [2]: 8.9 µM
- IC50 [3]: 6.92 µM
- IC50 [4]: 7.68 µM
- IC50 at 72 h [5]: 2.69 µM
- IC50 [6]: 6.9 µM

SMILES: COc1ccc2[nH]c3c(c2c1)CCN1C(=O)c2cc(F)ccc2N(c2cc(F)cc(Cl)c2)C31 (stereo unspecified)
- IC50 [1]: 3.92 µM
- IC50 [2]: 5.01 µM
- IC50 [3]: 5.11 µM
- IC50 [4]: 4.87 µM
- IC50 at 72 h [5]: 5.44 µM
- IC50 [6]: 7.05 µM

SMILES: O=C1c2cc(F)cc(F)c2N(c2cccc(F)c2)C2c3[nH]c4ccc(Cl)cc4c3CCN12 (stereo unspecified)
- inhibition [7]: 75.4%
- IC50 [1]: 0.68 µM
- IC50 [2]: 0.11 µM
- IC50 [3]: 0.77 µM
- IC50 [4]: 0.29 µM
- inhibition [8]: 90.1%
- IC50 at 72 h [5]: 1.37 µM
- IC50 [6]: 0.14 µM
- inhibition [9]: 65.2%

SMILES: COc1ccc2[nH]c3c(c2c1)CCN1C(=O)c2cc(F)ccc2N(c2ccc(F)c(F)c2)C31 (stereo unspecified)
- IC50 [1]: 1.34 µM
- IC50 [2]: 1.35 µM
- IC50 [3]: 1.48 µM
- IC50 [4]: 1.19 µM
- IC50 at 72 h [5]: 3.46 µM
- IC50 [6]: 2.67 µM

SMILES: COc1ccc2[nH]c3c(c2c1)CCN1C(=O)c2cc(F)c(F)cc2N(c2cccc(F)c2)C31 (stereo unspecified)
- IC50 [1]: 6.98 µM
- IC50 [2]: 7.21 µM
- IC50 [3]: 7.14 µM
- IC50 [4]: 7.69 µM
- IC50 at 72 h [5]: > 6 µM
- IC50 [6]: 10.8 µM

SMILES: COc1ccc2[nH]c3c(c2c1)CCN1C(=O)c2cc(F)ccc2N(c2cc(F)cc(F)c2)C31 (stereo unspecified)
- IC50 [1]: 2.91 µM
- IC50 [2]: 3.97 µM
- IC50 [3]: 2.97 µM
- IC50 [4]: 3.61 µM
- IC50 at 72 h [5]: > 6 µM
- IC50 [6]: 6.34 µM

SMILES: Cc1ccc2[nH]c3c(c2c1)CCN1C(=O)c2cc(F)cc(F)c2N(c2cccc(F)c2)C31 (stereo unspecified)
- inhibition [7]: 7.29%
- IC50 [1]: 0.51 µM
- IC50 [2]: 0.48 µM
- IC50 [3]: 0.49 µM
- IC50 [4]: 0.02 µM
- inhibition [8]: 83.7%
- IC50 at 72 h [5]: 1.4 µM
- IC50 [6]: 0.31 µM
- inhibition [9]: 67.6%

SMILES: COc1ccc2[nH]c3c(c2c1)CCN1C(=O)c2cc(F)ccc2N(c2ccc(C)c(F)c2)C31 (stereo unspecified)
- IC50 [1]: 4.62 µM
- IC50 [2]: 6.96 µM
- IC50 [3]: 5.9 µM
- IC50 [4]: 6.34 µM
- IC50 at 72 h [5]: > 6 µM
- IC50 [6]: 6.62 µM

SMILES: O=C1c2cc(F)cc(F)c2N(c2cccc(F)c2)C2c3[nH]c4ccccc4c3CCN12 (stereo unspecified)
- inhibition [7]: 27.7%
- IC50 [1]: 0.39 µM
- IC50 [2]: 0.27 µM
- IC50 [3]: 0.27 µM
- IC50 [4]: 0.03 µM
- inhibition [8]: 94.4%
- IC50 at 72 h [5]: 0.95 µM
- IC50 [6]: 0.28 µM
- inhibition [9]: 52.6%

SMILES: COc1ccc2[nH]c3c(c2c1)CCN1C(=O)c2cc(F)ccc2N(c2cc(F)ccc2Cl)C31 (stereo unspecified)
- IC50 [1]: 8.71 µM
- IC50 [2]: 16.5 µM
- IC50 [3]: 10.9 µM
- IC50 [4]: 11.5 µM
- IC50 at 72 h [5]: > 6 µM
- IC50 [6]: > 18 µM

SMILES: COc1ccc2[nH]c3c(c2c1)CCN1C(=O)c2cc(F)ccc2N(c2ccc(Br)c(F)c2)C31 (stereo unspecified)
- IC50 [1]: 15.9 µM
- IC50 [2]: > 18 µM
- IC50 [3]: > 18 µM
- IC50 [4]: > 18 µM
- IC50 at 72 h [5]: > 6 µM
- IC50 [6]: > 18 µM

SMILES: COc1ccc2[nH]c3c(c2c1)CCN1C(=O)c2cc(F)ccc2N(c2ccc(OC)c(F)c2)C31 (stereo unspecified)
- IC50 [1]: 4.67 µM
- IC50 [2]: 4.55 µM
- IC50 [3]: 4.38 µM
- IC50 [4]: 4.32 µM
- IC50 at 72 h [5]: > 6 µM
- IC50 [6]: 6.04 µM

SMILES: CCOc1ccc2[nH]c3c(c2c1)CCN1C(=O)c2cc(F)cc(F)c2N(c2cccc(F)c2)C31 (stereo unspecified)
- inhibition [7]: 50.8%
- IC50 [1]: 0.85 µM
- IC50 [2]: 1.34 µM
- IC50 [3]: 0.92 µM
- IC50 [4]: 0.6 µM
- inhibition [8]: 66.7%
- IC50 at 72 h [5]: 1.8 µM
- IC50 [6]: 0.89 µM
- inhibition [9]: 48.3%

SMILES: COc1ccc2[nH]c3c(c2c1)CCN1C(=O)c2cc(F)ccc2N(c2cc(F)ccc2F)C31 (stereo unspecified)
- IC50 [1]: 2.8 µM
- IC50 [2]: 5.78 µM
- IC50 [3]: 3.98 µM
- IC50 [4]: 7.75 µM
- IC50 at 72 h [5]: 4.67 µM
- IC50 [6]: 3.78 µM

SMILES: COc1ccc2[nH]c3c(c2c1)CCN1C(=O)c2cc(F)ccc2N(c2cc(F)ccc2C)C31 (stereo unspecified)
- IC50 [1]: 7.19 µM
- IC50 [2]: 8.91 µM
- IC50 [3]: 9.18 µM
- IC50 [4]: 11.2 µM
- IC50 at 72 h [5]: > 6 µM
- IC50 [6]: > 18 µM

SMILES: COc1ccc2[nH]c3c(c2c1)CCN1C(=O)c2cc(F)cc(F)c2N(c2cccc(F)c2)C31 (stereo unspecified)
- inhibition [7]: 20.1%
- IC50 [1]: 0.27 µM
- IC50 [2]: 0.27 µM
- IC50 [3]: 0.35 µM
- IC50 [4]: 0.23 µM
- inhibition [8]: 48.4%
- IC50 at 72 h [5]: 1.56 µM
- IC50 [6]: 39 µM
- inhibition [9]: 65.2%

SMILES: COc1ccc2[nH]c3c(c2c1)CCN1C(=O)c2cc(F)ccc2N(c2cc(F)ccc2Br)C31 (stereo unspecified)
- IC50 [1]: 13.1 µM
- IC50 [2]: 14.7 µM
- IC50 [3]: 13 µM
- IC50 [4]: 11.4 µM
- IC50 at 72 h [5]: > 6 µM
- IC50 [6]: > 18 µM

SMILES: CC[C@@]1(O)C(=O)OCc2c1cc1n(c2=O)Cc2cc3ccccc3nc2-1
- inhibition [9]: 70.2%

SMILES: COc1ccc2[nH]c3c(c2c1)CCN1C(=O)c2cc(F)ccc2N(c2cc(F)ccc2OC)C31 (stereo unspecified)
- IC50 [1]: > 18 µM
- IC50 [2]: > 18 µM
- IC50 [3]: > 18 µM
- IC50 [4]: > 18 µM
- IC50 at 72 h [5]: > 6 µM
- IC50 [6]: > 18 µM

SMILES: COc1cc(F)cc(N2c3ccc(F)cc3C(=O)N3CCc4c([nH]c5ccc(OC)cc45)C32)c1 (stereo unspecified)
- IC50 [1]: 2.91 µM
- IC50 [2]: 3.15 µM
- IC50 [3]: 3.98 µM
- IC50 [4]: 3.66 µM
- IC50 at 72 h [5]: 5.78 µM
- IC50 [6]: 4.21 µM

SMILES: COc1ccc2[nH]c3c(c2c1)CCN1C(=O)c2cc(F)ccc2N(c2cc(C)cc(F)c2)C31 (stereo unspecified)
- IC50 [1]: 7.3 µM
- IC50 [2]: 7.3 µM
- IC50 [3]: 8.15 µM
- IC50 [4]: 6.99 µM
- IC50 at 72 h [5]: > 6 µM
- IC50 [6]: 12 µM

SMILES: COc1ccc2[nH]c3c(c2c1)CCN1C(=O)c2cc(F)ccc2N(c2cc(F)cc(Br)c2)C31 (stereo unspecified)
- IC50 [1]: 4.36 µM
- IC50 [2]: 4.21 µM
- IC50 [3]: 5.77 µM
- IC50 at 72 h [5]: 5.97 µM
- IC50 [6]: 7.75 µM
